Experiment [1] concerns the target T1, recombinant human FXR LBD (Homo sapiens, UniProt Q96RI1).
T1 construct: Recombinant FXR LBD for ITC experiments was obtained; His6-tag (TEV-cleavable) (cleaved yes); made in house; host or cells: E. coli BL21 (DE3)
T1 sequence (Q96RI1 262-486 limits assumed): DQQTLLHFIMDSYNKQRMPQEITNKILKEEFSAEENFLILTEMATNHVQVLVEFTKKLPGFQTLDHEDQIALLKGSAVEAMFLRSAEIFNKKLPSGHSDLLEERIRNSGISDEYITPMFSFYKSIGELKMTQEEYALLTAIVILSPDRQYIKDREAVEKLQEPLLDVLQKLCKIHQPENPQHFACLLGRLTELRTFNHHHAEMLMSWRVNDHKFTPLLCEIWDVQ
Kind of experiment: Isothermal titration calorimetry on FXR LBD. The note with it: ITC, 25 °C, 1:1 binding assumed.

The next experiment concerns the target T2, PPARγ (Homo sapiens, UniProt P37231).
T2 construct: expressed in transfected cells; host or cells: HEK293T
T2 sequence (P37231 238-503 limits assumed): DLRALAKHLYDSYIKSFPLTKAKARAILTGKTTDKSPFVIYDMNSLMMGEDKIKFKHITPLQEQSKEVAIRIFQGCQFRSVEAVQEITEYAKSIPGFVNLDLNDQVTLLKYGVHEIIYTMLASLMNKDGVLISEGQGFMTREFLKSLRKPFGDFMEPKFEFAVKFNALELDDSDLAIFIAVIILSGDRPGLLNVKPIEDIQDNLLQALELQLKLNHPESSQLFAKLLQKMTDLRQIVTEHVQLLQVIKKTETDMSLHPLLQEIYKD
Nature of the experiment: Gal4 hybrid reporter gene assay PPARγ (HEK293T). It counts as cell-based. The note with it: relative activation, n=2. The text has this: Isothermal titration calorimetry (ITC) confirmed binding of 8 and 19 to the recombinant proteins of both FXR LBD and LTA4H (Figure 1).
Figure 2 (a) Selectivity profiles of 8 and 19 over related nuclear receptors. […] (b) Activity of 8 and 19 in a WST‐1 cell viability assay in HepG2 cells. Data are mean±S.E.M., n=4. […] Data are mean±S.E.M. relative FXR activation (%), n≥3. […] Data are mean±S.E.M. relative LTA4H inhibition (%), n=3.
Hybrid reporter gene assays. Nuclear receptor modulation was determined in hybrid reporter gene assays using the Gal4‐fusion receptor plasmids pFA‐CMV‐hPPARα‐LBD,[39] pFA‐CMV‐hPPARγLBD,[39] pFA‐CMV‐hPPARδ‐LBD,[39] pFA‐CMV‐hLXRα‐LBD,[40] pFACMV‐hLXRβ‐LBD,[40] pFA‐CMV‐hRXRα‐LBD,[41] pFA‐CMV‐hRARα‐LBD,[41] pFA‐CMV‐hVDR‐LBD[41] and pFA‐CMV‐hCAR‐LBD[41] coding for the hinge region and ligand binding domain (LBD) of the canonical isoform of the respective nuclear receptor, pFR‐Luc (Stratagene) as reporter plasmid and pRL‐SV40 (Promega) for normalization of transfection eﬃciency. HEK293T cells were grown in DMEM high glucose, supplemented with 10 % FCS, sodium pyruvate (1 mM), penicillin (100 U/mL), and streptomycin (100 μg/mL) at 37 °C and 5 % CO2, and seeded in 96‐well plates (2.5 ⋅ 10^4 cells/well) the day before transfection. […] Luminescence was measured with an Infinite M200 luminometer (Tecan Deutschland GmbH, Germany). […]

Another experiment concerns the target T3, full-length human FXR (Homo sapiens, UniProt Q96RI1).
T3 construct: coding for the full‐length human nuclear receptors FXR and RXRα; expressed in transfected cells; host or cells: HeLa
T3 sequence (Q96RI1 1-486): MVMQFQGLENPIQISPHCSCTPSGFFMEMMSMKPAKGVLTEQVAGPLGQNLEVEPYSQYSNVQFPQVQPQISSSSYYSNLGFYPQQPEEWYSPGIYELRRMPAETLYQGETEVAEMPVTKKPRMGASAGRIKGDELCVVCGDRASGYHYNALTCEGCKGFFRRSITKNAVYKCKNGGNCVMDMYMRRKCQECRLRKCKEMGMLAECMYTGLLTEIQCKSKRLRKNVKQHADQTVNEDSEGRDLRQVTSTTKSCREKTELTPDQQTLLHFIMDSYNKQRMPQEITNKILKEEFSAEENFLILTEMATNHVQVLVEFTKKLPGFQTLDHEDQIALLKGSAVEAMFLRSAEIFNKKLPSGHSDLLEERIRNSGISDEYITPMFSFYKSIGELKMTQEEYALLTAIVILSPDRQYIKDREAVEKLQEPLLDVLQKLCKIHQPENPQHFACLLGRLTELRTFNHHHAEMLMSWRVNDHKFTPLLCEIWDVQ
T3 sequence (P19793 1-462 partner): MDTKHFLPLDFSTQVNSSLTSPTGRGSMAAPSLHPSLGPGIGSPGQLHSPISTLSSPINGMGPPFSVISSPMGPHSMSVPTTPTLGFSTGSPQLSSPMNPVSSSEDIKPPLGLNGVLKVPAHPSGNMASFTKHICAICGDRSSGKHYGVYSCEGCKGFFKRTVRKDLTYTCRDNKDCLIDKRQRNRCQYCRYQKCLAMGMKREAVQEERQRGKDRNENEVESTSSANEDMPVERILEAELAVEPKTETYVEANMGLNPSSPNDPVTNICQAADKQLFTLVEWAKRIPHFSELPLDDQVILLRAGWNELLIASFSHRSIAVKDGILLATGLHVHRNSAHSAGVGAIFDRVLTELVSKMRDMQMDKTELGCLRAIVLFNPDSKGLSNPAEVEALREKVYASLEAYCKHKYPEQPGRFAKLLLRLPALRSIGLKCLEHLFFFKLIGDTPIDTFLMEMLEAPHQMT
The conditions noted are these: mean±S.E.M., n≥3, previously reported, cited from earlier work.

The values below come from article PMC8453936, “Development and in vitro Profiling of Dual FXR/LTA4H Modulators” (Chemmedchem, 2021).

In the case of `O=C(O)c1cccc(NC(=O)c2ccc(OCCCc3ccccc3)cc2)c1` [compound 8], the Kd in experiment [1] was around 7 µM. Besides, the PPARγ activation entry on PPARγ was “weak PPARγ activation”. Besides, the “FXR efficacy (maximum FXR activation relative to 3 μM GW4064)” value at full-length human FXR (3 μM GW4064 = 100 % activation) is on record as 22±1%. In addition, the concentration giving a half-maximal response (EC50) on full-length human FXR (full-length FXR reporter gene assay, BSEP promoter, HeLa) is 0.029 ± 0.006 µM.

For `O=C(O)c1ccnc(NC(=O)c2ccc(OCCCc3ccccc3)cc2)c1` [compound 19, 2‐(4‐(3‐Phenylpropoxy)benzamido)isonicotinic acid], in experiment [1], the Kd was around 3 µM.
